# Where two headings read alike, the source gives them in different places.
# What was measured:
# Mealy Bug [1] = settings: mealy bug on cotton plants, green house, dose 1 ml/gm/lit. spray; for % Mortality at 48 Hrs. / Total No. of dead insect at 48 Hrs.: 48 hrs after application; for % Corrected Mortality at 48 Hrs.: corrected for water control
# Aphid [2] = assay: whole plant or invertebrate; settings: 48 h
# Spodoptera litura [3] = settings: Spodoptera litura on castor leaves; dose 1 ml/gm/lit.; 10 insects/treatment; 72 hrs after application
# Helicoverpa armigera [4] = settings: Helicoverpa armigera on okra fruits, dose 1 ml/gm/lit., 72 Hrs.; for Total No. of dead insect at 72 Hrs.: 10 insects/treatment, 4 replications; for % Corrected Mortality at 72 Hrs.: corrected for water control
# Mealy Bug [5] = settings: Mealy Bug on cotton leaves, dose 1 ml/gm/lit., 48 Hrs.; for Total No. of dead insect at 48 Hrs.: 10 insects/treatment, 4 replications; for % Corrected Mortality at 48 Hrs.: corrected for water control
# Helicoverpa armigera [6] = settings: Helicoverpa armigera 3rd instar on chickpea plants, dose 1 ml/gm/lit. spray; for % Mortality at 72 Hrs.: 72 hrs after application; for % Corrected Mortality at 72 Hrs.: corrected for water control
# tomato seedlings = assay: Response of tomato plants, greenhouse growth (Ex. 30); format: in vivo; settings: tomato seedlings, dose 1 ml/gm/lit; for Plant Height 5th Day / Stem Girth 5th Day / CCI 5th Day: 5th day after application; for Plant Height 10th Day / Stem Girth 10th Day / CCI 10th Day: 10th day after application; for Plant Height % Increase over pre on 10th Day / Stem Girth % Increase over pre on 10th Day / CCI % Increase over pre on 10th Day / Root Length (cm) 10th Day / Root Length % Increase over control: 10th day; for Root Length % Increase over control: vs water control
# Thrips [7] = settings: Thrips on cotton leaves; dose 1 ml/gm/lit.; 10 insects/treatment; 48 hrs after application
# Mite [8] = settings: mite on okra plants, green house, dose 1 ml/gm/lit. spray; for % Mortality at 48 Hrs. / Total No. of dead insect at 48 Hrs.: 48 hrs after application; for % Corrected Mortality at 48 Hrs.: corrected for water control
# Thrips [9] = settings: thrips on cotton plants, greenhouse, dose 1 ml/gm/lit. spray; for % Mortality at 48 Hrs. / Total No. of dead insect at 48 Hrs.: 48 hrs after application; for % Corrected Mortality at 48 Hrs.: corrected for water control
# Thrips [10] = assay: whole plant or invertebrate; settings: in Gossypium hirsutum, 48 h
# Alternaria alternata [11] = assay: Alternaria leaf spot/blight on inoculated tomato plants (Ex. 28); format: in vivo; settings: tomato plants, Alternaria alternata; after 7 days; dose 1 ml/gm/lit
# [12] = cited from earlier work
# Mite [13] = settings: for Total No. of dead insect at 48 Hrs.: 10 insects/treatment, 4 replications, okra leaves
# Spodoptera litura [14] = settings: Spodoptera litura 3rd instar on cabbage plants, dose 1 ml/gm/lit. spray; for % Mortality at 72 Hrs.: 72 hrs after application; for % Corrected Mortality at 72 Hrs.: corrected for water control
# Spodoptera litura [15] = assay: whole plant or invertebrate; settings: 72 h
# Aphid [16] = settings: for Total No. of dead insect at 48 Hrs.: 10 insects/treatment, 4 replications, cotton leaves
# Alternaria alternata [17] = assay: In vitro poisoned food technique against fungus (Ex. 20); format: cell-based
# Aphid [18] = settings: Aphids on cotton plants, green house; dose 1 ml/gm/lit.; 10 insects/plant, 10 plants/treatment; 48 hrs
# chili seedlings = assay: Response of chili plants, greenhouse growth (Ex. 31); format: in vivo; settings: chili seedlings, dose 1 ml/gm/lit; for CCI 5th Day / Plant Height (cm) 5th Day: 5th day after application; for CCI 10th Day / Plant Height (cm) 10th Day: 10th day after application; for CCI % Increase over pre on 10th Day / Plant Height % Increase over pre on 10th Day / Root Lenght (cm) 10th Day / Stem Girth % Increase over pre on 10th Day / Root Lenght % Increase over control: 10th day; for Root Lenght % Increase over control: vs water control
# [19] = read-out: % Corrected Mortality at 48 Hrs.
# [20] = read-out: % Mortality at 48 Hrs.
# [21] = Table 13, descriptive, no test described
# [22] = read-out: % Corrected Mortality at 72 Hrs.
# [23] = read-out: % Mortality at 72 Hrs.
# [24] = poisoned food technique, PDA medium, dose 1 ml/gm/lit., after seven days
compound,measurement,setting,value
C/C=C\c1cc(OC)c(OC)cc1OC [β-Asarone],% Mortality at 48 Hrs.,Mealy Bug [1],35.00%
same,Total No. of dead insect at 48 Hrs.,Mealy Bug [1],35.00
same,% Corrected Mortality at 48 Hrs.,Mealy Bug [1],27.78%
same,mortality at 1 mL or g/L,Aphid [2]; [19],64.7%
same,mortality at 1 mL or g/L,Aphid [2]; [20],70%
same,Total No. of dead insect at 72 Hrs.,Spodoptera litura [3],6.00
same,Total No. of dead insect at 72 Hrs.,Helicoverpa armigera [4],5.00
same,% Mortality at 72 Hrs.,Helicoverpa armigera [4],50.00%
same,% Corrected Mortality at 72 Hrs.,Helicoverpa armigera [4],50.00%
same,Total No. of dead insect at 48 Hrs.,Mealy Bug [5],3.00
same,% Mortality at 48 Hrs.,Mealy Bug [5],30.00%
same,% Corrected Mortality at 48 Hrs.,Mealy Bug [5],26.32%
same,% Mortality at 72 Hrs.,Helicoverpa armigera [6],52.50%
same,% Corrected Mortality at 72 Hrs.,Helicoverpa armigera [6],52.50%
same,Plant Height 5th Day,tomato seedlings,6.72 cm
same,Stem Girth 5th Day,tomato seedlings,1.72 mm
same,Plant Height 10th Day,tomato seedlings,7.24 cm
same,Stem Girth 10th Day,tomato seedlings,2.45 mm
same,Plant Height % Increase over pre on 10th Day,tomato seedlings,27.69%
same,Stem Girth % Increase over pre on 10th Day,tomato seedlings,56.32%
same,CCI 5th Day,tomato seedlings,13.45
same,CCI % Increase over pre on 10th Day,tomato seedlings,29.08%
same,Root Length (cm) 10th Day,tomato seedlings,4.43 cm
same,CCI 10th Day,tomato seedlings,14.56
same,Root Length % Increase over control,tomato seedlings,33.31%
same,Total No. of dead insect at 48 Hrs.,Thrips [7],6.75
same,% Mortality at 48 Hrs.,Mite [8],22.50%
same,Total No. of dead insect at 48 Hrs.,Mite [8],22.50
same,% Corrected Mortality at 48 Hrs.,Mite [8],18.42%
same,% Mortality at 48 Hrs.,Thrips [9],65.00%
same,Total No. of dead insect at 48 Hrs.,Thrips [9],65.00
same,% Corrected Mortality at 48 Hrs.,Thrips [9],61.11%
same,mortality at 1 mL or g/L,Thrips [10]; [19],62.9%
same,mortality at 1 mL or g/L,Thrips [10]; [20],67.5%
same,% Disease reduction over Control,Alternaria alternata [11],64.46%
same,Antifungal Activity - Mode of action,[12]; [21],Completely inhibited
same,Insecticidal Activities - Mode of action,[12]; [21],Reductions in oviposition
same,Nematicidal Activity - Mode of action,[12]; [21],Act as potent nematicide
same,Total No. of dead insect at 48 Hrs.,Mite [13]; Dose 1 ml/gm/lit.,2.50
same,% Corrected Mortality at 48 Hrs.,"Mite [13]; Dose 1 ml/gm/lit., 48 hrs",18.92%
same,% Mortality at 48 Hrs.,"Mite [13]; Dose 1 ml/gm/lit., 48 hrs",25.00%
same,% Mortality at 72 Hrs.,Spodoptera litura [14],55.00%
same,% Corrected Mortality at 72 Hrs.,Spodoptera litura [14],52.63%
same,mortality at 1 mL or g/L,Spodoptera litura [15]; [22],57.9%
same,mortality at 1 mL or g/L,Spodoptera litura [15]; [23],60%
same,Total No. of dead insect at 48 Hrs.,Aphid [16]; Dose 1 ml/gm/lit.,7.25
same,% Corrected Mortality at 48 Hrs.,"Aphid [16]; Dose 1 ml/gm/lit., 48 hrs",68.57%
same,% Mortality at 48 Hrs.,"Aphid [16]; Dose 1 ml/gm/lit., 48 hrs",72.50%
same,inhibition of growth at 1 mL or g/L,Alternaria alternata [17]; […],54%
same,Mean colony Diameter (mm),Alternaria alternata [17]; [24],40.50 mm
same,Total No. of dead insect at 48 Hrs.,Aphid [18],70.00
same,CCI 5th Day,chili seedlings,9.58
same,Plant Height (cm) 5th Day,chili seedlings,5.70 cm
same,CCI % Increase over pre on 10th Day,chili seedlings,40.02%
same,Plant Height % Increase over pre on 10th Day,chili seedlings,51.59%
same,Root Lenght (cm) 10th Day,chili seedlings,3.17 cm
same,Stem Girth % Increase over pre on 10th Day,chili seedlings,40.46%
same,CCI 10th Day,chili seedlings,12.49
same,Plant Height (cm) 10th Day,chili seedlings,7.61 cm
same,Root Lenght % Increase over control,chili seedlings,16.00%
Cc1ccc(C(C)C)c(O)c1 [Thymol],% Mortality at 48 Hrs.,Mealy Bug [1],55.00%
same,Total No. of dead insect at 48 Hrs.,Mealy Bug [1],55.00
same,% Corrected Mortality at 48 Hrs.,Mealy Bug [1],50.00%
same,mortality at 1 mL or g/L,Aphid [2]; [19],55.9%
same,mortality at 1 mL or g/L,Aphid [2]; [20],62.5%
same,Total No. of dead insect at 72 Hrs.,Spodoptera litura [3],6.75
same,Total No. of dead insect at 72 Hrs.,Helicoverpa armigera [4],6.50
same,% Mortality at 72 Hrs.,Helicoverpa armigera [4],65.00%
same,% Corrected Mortality at 72 Hrs.,Helicoverpa armigera [4],65.00%
same,Total No. of dead insect at 48 Hrs.,Mealy Bug [5],5.50
same,% Mortality at 48 Hrs.,Mealy Bug [5],55.00%
same,% Corrected Mortality at 48 Hrs.,Mealy Bug [5],52.63%
same,% Mortality at 72 Hrs.,Helicoverpa armigera [6],62.50%
same,% Corrected Mortality at 72 Hrs.,Helicoverpa armigera [6],62.50%
same,Plant Height 5th Day,tomato seedlings,6.81 cm
same,Stem Girth 5th Day,tomato seedlings,1.90 mm
same,Plant Height 10th Day,tomato seedlings,7.62 cm
same,Stem Girth 10th Day,tomato seedlings,2.53 mm
same,Plant Height % Increase over pre on 10th Day,tomato seedlings,30.48%
same,Stem Girth % Increase over pre on 10th Day,tomato seedlings,61.42%
same,CCI 5th Day,tomato seedlings,14.12
same,CCI % Increase over pre on 10th Day,tomato seedlings,22.87%
same,Root Length (cm) 10th Day,tomato seedlings,4.82 cm
same,CCI 10th Day,tomato seedlings,15.42
same,Root Length % Increase over control,tomato seedlings,44.89%
same,Total No. of dead insect at 48 Hrs.,Thrips [7],3.25
same,% Mortality at 48 Hrs.,Mite [8],62.50%
same,Total No. of dead insect at 48 Hrs.,Mite [8],62.50
same,% Corrected Mortality at 48 Hrs.,Mite [8],60.53%
same,% Mortality at 48 Hrs.,Thrips [9],35.00%
same,Total No. of dead insect at 48 Hrs.,Thrips [9],35.00
same,% Corrected Mortality at 48 Hrs.,Thrips [9],27.78%
same,mortality at 1 mL or g/L,Thrips [10]; [19],22.9%
same,mortality at 1 mL or g/L,Thrips [10]; [20],32.5%
same,% Disease reduction over Control,Alternaria alternata [11],61.16%
same,Antioxidant Activity - Mode of action,[12]; [21],Antioxidant and food
same,Bactericidal Activity - Mode of action,[12]; [21],Growth inhibition
same,Insecticidal Activities - Mode of action,[12]; [21],"Inhibited the growth,"
same,Virucidal Activity - Mode of action,[12]; [21],Inhibit virus replication
same,Phytotonic Effect,"[12]; Table 13, effect on plants, descriptive",Improves
same,Total No. of dead insect at 48 Hrs.,Mite [13]; Dose 1 ml/gm/lit.,6.00
same,% Corrected Mortality at 48 Hrs.,Mite [13]; in vivo,56.76%
same,% Mortality at 48 Hrs.,Mite [13]; in vivo,60.00%
same,% Mortality at 72 Hrs.,Spodoptera litura [14],65.00%
same,% Corrected Mortality at 72 Hrs.,Spodoptera litura [14],63.16%
same,mortality at 1 mL or g/L,Spodoptera litura [15]; [22],65.8%
same,mortality at 1 mL or g/L,Spodoptera litura [15]; [23],67.5%
same,Total No. of dead insect at 48 Hrs.,Aphid [16]; Dose 1 ml/gm/lit.,6.25
same,% Corrected Mortality at 48 Hrs.,Aphid [16]; in vivo,57.14%
same,Mean colony Diameter (mm),Alternaria alternata [17]; [24],51.50 mm
same,inhibition of growth at 1 mL or g/L,"Alternaria alternata [17]; poisoned food technique, PDA medium, dose 1 ml/gm/lit., after seven days, vs untreated control, read-out: % Inhibition of growth",41.5%
same,Total No. of dead insect at 48 Hrs.,Aphid [18],62.50
same,CCI 5th Day,chili seedlings,13.80
same,Plant Height (cm) 5th Day,chili seedlings,6.13 cm
same,CCI % Increase over pre on 10th Day,chili seedlings,75.74%
same,Plant Height % Increase over pre on 10th Day,chili seedlings,58.04%
same,Root Lenght (cm) 10th Day,chili seedlings,3.77 cm
same,Stem Girth % Increase over pre on 10th Day,chili seedlings,51.36%
same,CCI 10th Day,chili seedlings,14.85
same,Plant Height (cm) 10th Day,chili seedlings,7.27 cm
same,Root Lenght % Increase over control,chili seedlings,37.87%

# From patent US20250351832A1, “PHYTOCHEMICALS AS BIOPESTICIDES AND BIOSTIMULANTS” (KAY BEE BIO ORGANICS PVT. LTD., priority 2024, published 2025)
